These results are taken from patent US9714941B2, “Bio-sensing nanodevice” (Massachusetts Institute of Technology, priority 2007, dated 2017).

In series [1] the target is T1, hOR17-4 (Homo sapiens, UniProt P34982).
T1 sequence (P34982 1-312): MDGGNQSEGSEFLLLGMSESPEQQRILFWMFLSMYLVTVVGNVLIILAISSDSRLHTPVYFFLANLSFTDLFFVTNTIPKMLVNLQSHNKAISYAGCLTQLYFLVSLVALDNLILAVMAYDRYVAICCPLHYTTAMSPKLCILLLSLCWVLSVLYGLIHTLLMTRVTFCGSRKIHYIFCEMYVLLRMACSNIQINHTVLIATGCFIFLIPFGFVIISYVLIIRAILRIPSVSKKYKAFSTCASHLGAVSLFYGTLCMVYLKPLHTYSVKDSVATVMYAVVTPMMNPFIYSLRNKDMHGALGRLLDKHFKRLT
The series is described as follows: Surface plasmon resonance (Biacore A100) odorant binding assay. The note with it: SPR. Also on record: made in house; host or cells: cell-free expression, wheat germ extract (Roche RTS); uncleaned lysate supernatant captured on the chip. As to the method: All odorant binding experiments were performed on a Biacore™ A100 (GE Healthcare, Uppsala, Sweden) at 25° C. A Biacore™ A100 was used in the present studies since it has a parallel flow configuration thus allowing assay development e.g. solubilization conditions to be tested and optimized in parallel in a multiplexed format. The sensor chip CM4, amine coupling kit, HBS (10 mM Hepes, 0.15 M NaCl, pH 7.4) and PBS were from (GE Healthcare, Uppsala, Sweden).
The anti Rho-tag antibody 1D4 at 40 μg/ml in 10 mM sodium acetate pH 5.5 was immobilized onto a series S sensor chip using standard amine-coupling chemistry in HBS running buffer at 10 μl/min (33). The amount of coupled 1D4 was about 5500 RU. Control surfaces were prepared similarly without protein derivatization and utilized as a reference surfaces for compound binding experiments.
Cell-free lysate containing the expressed olfactory receptor was centrifuged for […] at 14000×g at 4° C., to remove larger particles. The supernatant, containing about 0.6 mg/ml olfactory receptor, was immediately captured on the surface plasmon resonance (SPR) chip using PBS, 0.1% CHAPS, 0.02% CHS, 0.1% DDM and 1% (v/v) ethanol as running buffer at 10 μl/min.
Fresh odorant lilial solutions were made as follows. […]
For orientation: Surface plasmon resonance follows binding to a sensor surface in real time, without labels.

Series [2] can be described thus: Odorant solubility in SPR running buffer, inferred from the binding response. The class given is physicochemical. As to the method:
Fresh odorant lilial solutions were made as follows. Pure odorant was diluted in ethanol to 0.5 M. This solution was diluted 67 times in PBS, 0.1% CHAPS, 0.02% CHS, 0.1% DDM to obtain a 7.5 mM odorant solution in running buffer with 1% (v/v) ethanol. Further dilutions were made in running buffer containing 1% (v/v) ethanol to obtain a concentration series of 5 μM, 10 μM, 20 μM and 40 μM of odorant lilial.
For the actual binding measurements, the odorant concentration series were injected from low to high concentration over control and derivatized surfaces for 30 seconds with a flow rate of 60 μl/min. Zero concentration blank buffer cycles were included as negative control samples. Solvent correction procedures were included to compensate for any DMSO related bulk refractive index variations and performed as described previously^(34). Non-specific binding effects to sensor surface CM4 were absent for all analyses reported.

Series [3] deals with T1, hOR17-4. The note with it: cited from earlier work.

In the case of `CC(C=O)Cc1ccc(C(C)(C)C)cc1` (stereo not drawn) [lilial], the “dose response binding (RU)” value in series [1] (lilial 5-40 μM, 25° C., receptor from cell-free production captured via 1D4 antibody) is “binding response increases by increasing odorant concentration”. Further, the “binding constant (approximately estimated)” value in series [1] (exact value could not be determined because of low solubility) is “within micromolar range”. Also, the “solubility at high concentrations” value in series [2] (SPR running buffer) was “very low”. Moreover, the “concentration above which the response does not reach equilibrium (odorant starts to fall out of solution)” value in series [2] (running buffer PBS, 0.1% CHAPS, 0.02% CHS, 0.1% DDM, 1% (v/v) ethanol) is given as “above 10 μM”. In series [3] (in vivo studies), the “agonist activity at hOR17-4” value is “known agonist”. In series [3] (in vivo), the “affinity constant reported in vivo” value is recorded as “micromolar range”.
